Test results as given in US11021481B2, “Substituted isoindolin-1-ones and 2,3-dihydro-1h-pyrrolo[3,4-c]pyridin-1-ones as HPK1 antagonists” (Nimbus Saturn, Inc., priority 2019, dated 2021).
Structures can show the parent of a compound that is named as a salt.

Biological target: HPK1 (Homo sapiens (Human), UniProt Q92918)
Assay: HPK1 biochemical enzyme assay (microfluidic mobility shift assay)
Details: 1.5 nM HPK1, ATP 1 mM final, 30 min preincubation, 60 min at RT, Caliper EZ Reader; read-out: HPK1 1000UMATP caliper IC50
Procedure, shortened: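 Ten-point compound titrations (top 3 μM final) preincubated 30 min with HPK1 and substrate, then reaction started with 1 mM ATP and 1 μM substrate, 5 mM MgCl2. After 60 min at RT, reaction terminated and product measured by microfluidic mobility shift.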

Sequence of HPK1 (Q92918 whole entry): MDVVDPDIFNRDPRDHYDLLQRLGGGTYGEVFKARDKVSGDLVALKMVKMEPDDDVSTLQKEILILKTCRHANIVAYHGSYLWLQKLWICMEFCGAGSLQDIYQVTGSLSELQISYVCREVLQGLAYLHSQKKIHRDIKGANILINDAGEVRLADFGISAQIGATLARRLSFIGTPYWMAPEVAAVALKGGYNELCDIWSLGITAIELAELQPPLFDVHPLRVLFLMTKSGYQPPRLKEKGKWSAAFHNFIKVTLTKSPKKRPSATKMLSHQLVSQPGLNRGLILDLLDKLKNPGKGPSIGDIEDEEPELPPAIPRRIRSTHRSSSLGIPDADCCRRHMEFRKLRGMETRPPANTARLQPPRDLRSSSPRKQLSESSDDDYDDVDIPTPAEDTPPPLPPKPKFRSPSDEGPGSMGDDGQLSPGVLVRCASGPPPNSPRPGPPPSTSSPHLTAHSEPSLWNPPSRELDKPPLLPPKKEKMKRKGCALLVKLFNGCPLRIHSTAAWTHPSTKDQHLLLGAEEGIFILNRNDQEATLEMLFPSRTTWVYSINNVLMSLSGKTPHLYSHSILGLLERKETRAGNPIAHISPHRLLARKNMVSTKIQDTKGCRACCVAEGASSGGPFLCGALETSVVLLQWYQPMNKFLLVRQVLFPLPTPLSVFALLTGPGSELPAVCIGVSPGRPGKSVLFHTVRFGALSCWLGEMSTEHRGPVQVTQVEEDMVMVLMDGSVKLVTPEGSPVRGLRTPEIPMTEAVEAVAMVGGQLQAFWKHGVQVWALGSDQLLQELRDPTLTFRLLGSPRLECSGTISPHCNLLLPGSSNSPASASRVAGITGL

IC50 | SMILES
< 100 nM | Cn1cc(-c2ccc(Nc3ccc(N4CCC(O)CC4)cn3)c3c2CNC3=O)c2cnncc21 [I-425, 7-((5-(4-hydroxy-piperidin-1-yl)pyridin-2-yl)amino)-4-(1-methyl-1H-pyrrolo[2,3-d]pyridazin-3-yl)isoindolin-1-one]
< 100 nM | Cn1ccc2c(-c3ccc(Nc4ccc(N5CCC(O)CC5)cn4)c4c3CNC4=O)cnc-2n1 [I-426, 7-((5-(4-hydroxy-piperidin-1-yl)pyridin-2-yl)amino)-4-(2-methyl-2H-pyrrolo[2,3-c]pyridazin-5-yl)isoindolin-1-one]
< 100 nM | Cn1ccc2c(-c3ncc(Nc4ccc(C5(O)CCOCC5)cn4)c4c3CNC4=O)ccnc21 [I-427]
< 100 nM | O=C1NCc2c(-c3cnc4cc(F)ccn34)ccc(Nc3ccc(N4CCC(CN5CCOCC5)CC4)cn3)c21 [I-428, 4-(7-fluoroimidazo [1,2-a]pyridin-3-yl)-7-((5-(4-(morpholinomethyl)piperidin-1-yl)pyridin-2-yl)amino)isoin-dolin-1-one]
< 100 nM | CC1(N2CCOCC2)CCN(c2ccc(Nc3ccc(-c4cnc5cc(F)ccn45)c4c3C(=O)NC4)nc2)CC1 [I-429, 4-(7-fluoroimidazo [1,2-a]pyridin-3-yl)-7-((5-(4-methyl-4-morpholinopip-eridin-1-yl)pyridin-2-yl)amino)isoin-dolin-1-one]
> 1000 nM | Cn1ccc2c(-c3ncc(Nc4cccc(C5(C)CCNCC5)n4)c4c3CNC4=O)ccnc21 [I-430, 4-(1-methyl-1H-pyrrolo[2,3-b]pyridin-4-yl)-7-((6-(4-methylpiperidin-4-yl)pyridin-2-yl)amino)-2,3-dihydro-1H-pyrrolo[3,4-c]pyridin-1-one]
< 100 nM | Cn1ccc2c(-c3ncc(Nc4cccc(N5CC[C@@H](N6CCCC6)C5)n4)c4c3CNC4=O)ccnc21 [I-431, (R)-7-((6-([1,3-bipyrrolidin]-1-yl)pyridin-2-yl)amino)-1-(1-methyl-1H-pyrrolo[2,3-b]pyridin-4-yl)-2,3-dihydro-1H-pyrrolo[3,4-c]pyridin-1-one]
> 1000 nM | CN1CC(c2cccc(Nc3cnc(-c4ccnc5c4ccn5C)c4c3C(=O)NC4)n2)C1 [I-432, 4-(1-methyl-1H-pyrrolo[2,3-b]pyridin-4-yl)-7-((6-(1-methylazetidin-3-yl)pyridin-2-yl)amino)-2,3-dihydro-1H-pyrrolo[3,4-c]pyridin-1-one]
< 100 nM | CC1(CO)CCN(c2ccc(Nc3ccc(-c4cnc5cc(F)ccn45)c4c3C(=O)NC4)nc2)CC1 [I-433, 4-(7-fluoroimidazo [1,2-a]pyridin-3-yl)-7-((5-(4-(hydroxymeth-yl]-4-methylpiperidin-1-yl)pyridin-2-yl)amino)isoin-dolin-1-one]
< 100 nM | O=C1NCc2c(-c3cnc4cnccn34)ccc(Nc3ccc(N4CC[C@@H](F)[C@H](O)C4)cn3)c21 [I-434, 7-((5-((3R,4R)-4-fluoro-3-hydroxypiperidin-1-yl)pyridin-2-yl)amino)-4-(imidazo[1,2-a]pyrazin-3-yl)isoindolin-1-one]
< 100 nM | O=C1NCc2c(-c3cnc4cnccn34)ccc(Nc3ccc(N4CC[C@H](F)[C@@H](O)C4)cn3)c21 [I-435, 7-((5-((3S,4S)-4-fluoro-3-hydroxypiperidin-1-yl)pyridin-2-yl)amino)-4-(imidazo[1,2-a]pyrazin-3-yl)isoindolin-1-one]
< 100 nM | COC[C@@H]1CN(c2ccc(Nc3cnc(-c4ccnc5c4ccn5C)c4c3C(=O)NC4)nc2)CC[C@@H]1O [I-436, 7-((5-((3S,4S)-4-hydroxy-3-(methoxymeth-yl)piperidin-1-yl)pyridin-2-yl)amino)-4-(1-methyl-1H-pyrrolo[2,3-b]pyridin-4-yl)-2,3-dihydro-1H-pyrrolo[3,4-c]pyridin-1-one]
< 100 nM | CN1CCN(CC2(O)CCN(c3ccc(Nc4ccc(-c5cnc6cc(Cl)ccn56)c5c4C(=O)NC5)nc3)CC2)CC1 [I-437, 4-(7-chloroimidazo [1,2-a]pyridin-3-yl)-7-((5-(4-hydroxy-4-((4-methylpiperazin-1-yl)methyl)piper-idin-1-yl)pyridin-2-yl)amino)isoin-dolin-1-one]
< 100 nM | Cc1ccn2c(-c3ccc(Nc4ccc(N5CCC(O)(CN6CCOCC6)CC5)cn4)c4c3CNC4=O)cnc2c1F [I-439, 4-(8-fluoro-7-methylimidazo [1,2-a]pyridin-3-yl)-7-((5-(4-hydroxy-4-(morpholinomethyl)piperidin-1-yl)pyridin-2-yl)amino)isoin-dolin-1-one]
< 100 nM | Cn1ccc2c(-c3ncc(Nc4cccc(N5CC[C@H]6CNC[C@H]65)n4)c4c3CNC4=O)ccnc21 [I-440, 7-((6-((3aS,6aS)-hexahydropy-rrolo[3,4-b]pyrrol-(2H)-yl)pyridin-2-yl)amino)-4-(1-methyl-1H-pyrrolo[2,3-b]pyridin-4-yl)-2,3-dihydro-1H-pyrrolo[3,4-c]pyridin-1-one]
100 to 1000 nM | Cn1ccc2c(-c3ncc(Nc4cccc(N5CC[C@@H]6CNC[C@@H]65)n4)c4c3CNC4=O)ccnc21 [I-441, 7-((6-((3aR,6aR)-hexahydro-pyrrolo[3,4-b]pyrrol-1(2H)-yl)pyridin-2-yl)amino)-4-(1-methyl-1H-pyrrolo[2,3-b)pyridin-4-yl)-2,3-dihydro-1H-pyrrolo[3,4-c]pyridin-1-one]
< 100 nM | COC[C@@H]1CN(c2ccc(Nc3ccc(-c4cnc5cc(F)ccn45)c4c3C(=O)NC4)nc2)CCO1 [I-442, (S)-4-(7-fluoroimidazo [1,2-a]pyridin-3-yl)-7-((5-(2-(methoxymeth-yl)morpholino)pyridin-2-yl)amino)isoin-dolin-1-one]
< 100 nM | Cn1ccc2c(-c3ncc(Nc4cccc(N5CC[C@H](N6CCCC6)C5)n4)c4c3CNC4=O)ccnc21 [I-443, (S)-7-((6-([1,3-bipynolidin]-1′-yl)pyridin-2-yl)amino)-4-(1-methyl-1H-pyrrolo[2,3-b]pyridin-4-yl)-2,3-dihydro-1H-pyrrolo[3,4-c]pyridin-1-one]
< 100 nM | Cc1ccn2c(-c3ccc(Nc4ccc(N5CCC(O)(CN6CCN(C)CC6)CC5)cn4)c4c3CNC4=O)cnc2c1F [I-444, 4-(8-fluoro-7-methylimidazo [1,2-a]pyridin-3-yl)-7-((5-(4-hydroxy-4-((4-methylpiperazin-1-yl)methyl)piper-idin-1-yl)pyridin-2-yl)amino)isoin-dolin-1-one]
100 to 1000 nM | O=C1NCc2c(-c3cnn4c3CCCC4)ccc(Nc3ccc(N4CCC[C@@]5(CCNC5=O)C4)cn3)c21 [I-445, (R)-7-(6-((3-oxo-7-(4,5,6,7-tetrahydropyra-zolo[1,5-a]pyridin-3-yl)isoindolin-4-yl)amino)pyri-din-3-yl)-2,7-diazaspiro[4.5] decan-1-one]
< 100 nM | O=C1NCc2c(-c3cnn4c3CCCC4)ccc(Nc3ccc(N4CCC[C@]5(CCNC5=O)C4)cn3)c21 [I-446, (S)-7-(6-((3-oxo-7-(4,5,6,7-tetrahydropyra-zolo[1,5-a]pyridin-3-yl)isoindolin-4-yl)amino)pyri-din-3-yl)-2,7-diazaspiro[4.5] decan-1-one]
< 100 nM | O=C1NCc2c(-c3cnc4cc(Cl)ccn34)ccc(Nc3ccc(N4CCC(O)(CN5CCOCC5)CC4)cn3)c21 [I-447, 4-(7-chloroimidazo [1,2-a]pyridin-3-yl)-7-((5-(4-hydroxy-4-(morpholino-methyl)piperidin-1-yl)pyridin-2-yl)amino)isoin-dolin-1-one]
100 to 1000 nM | Cn1cc2ncc(-c3ccc(Nc4ccc(N5CCC(O)CC5)cn4)c4c3CNC4=O)c-2cn1 [I-448, 7-((5-(4-hydroxy-piperidin-1-yl)pyridin-2-yl)amino)-4-(6-methyl-6H-pyrrolo[2,3-d]pyridazin-3-yl)isoindolin-1-one]
< 100 nM | CNC1CN(c2cccc(Nc3cnc(-c4ccnc5c4ccn5C)c4c3C(=O)NC4)n2)C1 [I-449, 7-[[6-[3-(methylamino)azetidin-1-yl]-2-pyridyl]amino]-4-(1-methylpyrrolo [2,3-b]pyridin-4-yl)-2,3-dihydropyrrolo [3,4-c]pyridin-1-one Formic acid salt]
< 100 nM | O=C1NCc2c(-c3cnc4cc(F)ccn34)ccc(Nc3ccc(N4CCO[C@@H](CO)C4)cn3)c21 [I-450, 4-(7-fluoroimidazo [1,2-a]pyridin-3-yl)-7-[[5-[(2R)-2-(hydroxymeth-yl)morpholin-4-yl]-2-pyridyl]amino] isoindolin-1-one]
< 100 nM | CN1CCN(c2cccc(Nc3cnc(-c4cnc5ccccn45)c4c3C(=O)NC4)n2)CC1 [I-451, 4-imidazo[1,2-a]pyridin-3-yl-7-[[6-(4-methylpiperazin-1-yl)-2-pyridyl]amino]-2,3-dihydropyrrolo [3,4-c]pyridin-1-one Bis formate]
< 100 nM | Cc1ccn2c(-c3ccc(Nc4ccc(N5CCO[C@H](CO)C5)cn4)c4c3CNC4=O)cnc2n1 [I-452, 7-[[5-[(2S)-2-(hydroxymeth-yl)morpholin-4-yl]-2-pyridyl]amino]-4-(7-methylimidazo [1,2-a]pyrimidin-3-yl)isoindolin-1-one]
< 100 nM | CNC1CCN(c2ccc(Nc3cnc(-c4ccnc5c4ccn5C)c4c3C(=O)NC4)nc2)CC1(F)F (stereo not drawn) [I-453, 7-[[5-[3,3-difluoro-4-(methylamino)-1-piperidyl]-2-pyridyl]amino]-4-(1-methylpyrrolo [2,3-b]pyridin-4-yl)-2,3-dihydropyrrolo [3,4-c]pyridin-1-one]
< 100 nM | O=C1NCc2c(-c3cnc4cc(F)ccn34)ccc(Nc3ccc(N4CCO[C@H](CO)C4)cn3)c21 [I-454, 4-(7-fluoroimidazo [1,2-a]pyridin-3-yl)-7-[[5-[(2S)-2-(hydroxymeth-yl)morpliolin-4-yl]-2-pyridyl]amino] isoindolin-1-one]
100 to 1000 nM | COC1CCN(c2ccc(Nc3cnc(-c4cnc5c(F)cccn45)c4c3C(=O)NC4)nc2)CC1 [I-455, 4-(8-fluoroimidazo [1,2-a]pyridin-3-yl)-7-[[5-(4-methoxy-1-piperidyl)-2-pyridyl]amino]-2,3-dihydropyrrolo [3,4-c]pyridin-1-one]
